This is an account of results in publication PMC8115619, “Generation of a chemical genetic model for JAK3” (Scientific Reports, 2021).

One assay deals with TYK2. Conditions: read-out: In vitro IC50 TYK2, cited from earlier work.
The subject of assay [1] is IL-4 induced STAT6 phosphorylation in BMDMs from JAK3 Cys905Ser knockin mice. Put plainly: IL-4 induced STAT6 phosphorylation in JAK3 Cys905Ser knockin BMDMs (immunoblot). In kind it is cell-based, mouse. As to conditions: for pIC50: Mus musculus, BMDM, 0.5 h, 10 ng/ml IL-4 30 min, pSTAT6 Tyr641 immunoblot, two independent experiments. The procedure: (§1) Figure 3 Effect of JAK3 inhibitors on IL-4 induced STAT6 phosphorylation. BMDMs were isolated from wild type and JAK3 Cys905Ser knockin mice. Cells were incubated with the indicated concentrations of inhibitor before stimulation for 30 min with 10 ng/ml IL-4. Cells were lysed and the levels of STAT6 phosphorylated at Tyr641 were assessed by immunoblotting. Levels of ERK1/2 were determined as a loading control.
(§2) Bone marrow derived macrophages (BMDMs) were cultured as described. Briefly, bone marrow was flushed in PBS from the femurs and tibias of mice. Cells were cultured on bacterial grade plastic for 7 days at 37 °C, 5% CO2. Cells were then detached using Versene (Gibco), re-plated on tissue culture plastic in BMDM media (in DMEM supplemented with 10% heat inactivated FBS (Labtech), 2 mM L-glutamine, 100 U/ml penicillin G, 100 μg/ml streptomycin and 0.25 μg/ml amphotericin, 5 ng/ml M-CSF) and used within 48 h. Where indicated cells were stimulated with 10 ng/ml IL-4, 10 ng/ml GM-CSF, 10 ng/ml IL-10 or 10 ng/ml IFNβ. All cytokines were from PeproTech.
(§3) Cells were lysed directly into SDS sample buffer and aliquots run on 10% polyacrylamide gels using standard methods. Proteins were transferred onto nitrocellulose membranes, and specific proteins were detected by immunoblotting. Antibodies against tyrosine phosphorylated STATs were from Cell Signaling Technology (phospho-STAT1 #9167, phospho-STAT3 #9131, phospho-STAT5 #4322 and phospho-STAT6 #9361). The total ERK1/2 antibody used as a loading control was also from cell Signaling Technology (#4695). HRP-conjugated secondary antibodies were obtained from Pierce. Bands were detected using Clarity ECL reagents from BioRad and imaged on a Licor Odyssey Fc system. Quantification was carried out using Licor Image Studio software. After correction for the ERK1/2 levels to account for loading differences, percentage inhibition was calculated relative to the IL-4 stimulated condition. IC50 values were calculated using the same methods as for the in vitro IC50 values.

In assay [2] the test system is IL-4 induced STAT6 phosphorylation in wild type BMDMs. Put plainly: IL-4 induced STAT6 phosphorylation in wild type BMDMs (immunoblot). The format is cell-based. As to conditions: Mus musculus, BMDM, 0.5 h; 10 ng/ml IL-4 30 min, pSTAT6 Tyr641 immunoblot, two independent experiments. The procedure: as §1, §2, §3
The target in a further assay is PKCγ (Homo sapiens, UniProt P05129). Put plainly: Selectivity screen PKCγ. As to conditions: 1 µM inhibitor, mean. In kind it is biochemical. The procedure:
(§4) For the in vitro kinase assay, JAK3 (5–20 mU diluted in 50 mM Tris pH 7.5, 0.1 mM EGTA, 0.05% β-mercaptoethanol, 1 mg/ml BSA) was assayed against PDKtide ([…]) in a final volume of 25.5 µl containing 50 mM Tris pH 7.5, 0.1 mM EGTA, 0.05% β-mercaptoethanol, 100 µM substrate peptide, 10 mM magnesium acetate and 0.02 mM [33P-γ-ATP] (50–1000 cpm/pmole) and incubated for 30 min at room temperature. Assays were started by the addition of the ATP and stopped by addition of 5 µl of 0.5 M (3%) orthophosphoric acid and then harvested onto P81 Unifilter plates with a wash buffer of 50 mM orthophosphoric acid. To determine the Km for ATP, assays were run using 1, 5, 10, 20, 50, 100, 200, 400, 500 μM ATP and Km derived by non-linear regression fitting to the Michaelis–Menten equation v = Vmax[S]/(Km + [S]). IC50 values for inhibitors via non-linear regression using a parameter model: Y = Bottom + (Top–Bottom)/(1 + (IC50/X)^HillSlope). Non-linear regression was carried out in Prism (version 8). In vitro selectivity screen was carried out as described previously.

The target in a further assay is Src (Homo sapiens, UniProt P12931). In words: Selectivity screen Src. The format is biochemical. As to conditions: 1 µM inhibitor, mean. How it is done: as §4
In another assay the target is MARK1 (Homo sapiens, UniProt Q9P0L2). Put plainly: Selectivity screen MARK1. Conditions: 1 µM inhibitor, mean. In kind it is biochemical. How it is done: as §4
Another assay has as its target PKA (Homo sapiens, UniProt P17612). In words: Selectivity screen PKA. Conditions: 1 µM inhibitor, mean. In kind it is biochemical. How it is done: as §4
A further assay addresses LKB1 (Homo sapiens, UniProt Q15831). In words: Selectivity screen LKB1. In kind it is biochemical. As to conditions: 1 µM inhibitor, mean. The procedure:
as §4

For a further assay, the target named is MST2 (Homo sapiens, UniProt Q13188). In words: Selectivity screen MST2. The format is biochemical. Conditions: 1 µM inhibitor, mean. The procedure: as §4
For the next assay, the target named is PAK4 (Homo sapiens, UniProt O96013). Put plainly: Selectivity screen PAK4. The format is biochemical. As to conditions: 1 µM inhibitor, mean. The procedure: as §4
The next assay has as its target PKCz (Homo sapiens, UniProt Q05513). In words: Selectivity screen PKCz. The format is biochemical. As to conditions: 1 µM inhibitor, mean. How it is done:
as §4

For another assay, the target named is DAPK1 (Homo sapiens, UniProt P53355). Put plainly: Selectivity screen DAPK1. The format is biochemical. As to conditions: 1 µM inhibitor, mean. The procedure:
as §4

The target in another assay is ERK1 (Homo sapiens, UniProt P27361). In words: Selectivity screen ERK1. The format is biochemical. As to conditions: 1 µM inhibitor, mean. How it is done:
as §4

Another assay has as its target PKBb (Homo sapiens, UniProt P31751). Put plainly: Selectivity screen PKBb. The format is biochemical. As to conditions: 1 µM inhibitor, mean; read-out: activity remaining in the presence of the inhibitor: PKBb. The procedure:
as §4

The target of the next assay is SGK1 (Homo sapiens, UniProt O00141). In words: Selectivity screen SGK1. In kind it is biochemical. As to conditions: 1 µM inhibitor, mean. The procedure: as §4
The target in another assay is JNK1 (Homo sapiens, UniProt P45983). Put plainly: Selectivity screen JNK1. In kind it is biochemical. As to conditions: 1 µM inhibitor, mean. How it is done: as §4
The subject of the next assay is PHK. Put plainly: Selectivity screen PHK. In kind it is biochemical. As to conditions: 1 µM inhibitor, mean. The procedure:
as §4

A further assay concerns the target CHK2 (Homo sapiens, UniProt O96017). Put plainly: Selectivity screen CHK2. The format is biochemical. Conditions: 1 µM inhibitor, mean. How it is done: as §4
For the next assay, the target named is ULK2 (Homo sapiens, UniProt Q8IYT8). Put plainly: Selectivity screen ULK2. As to conditions: 1 µM inhibitor, mean. The format is biochemical. The procedure:
as §4

For the next assay, the target named is CK1γ2 (Homo sapiens, UniProt P78368). In words: Selectivity screen CK1γ2. The format is biochemical. As to conditions: 1 µM inhibitor, mean. The procedure: as §4
In the next assay the target is EPH-A2 (Homo sapiens, UniProt P29317). In words: Selectivity screen EPH-A2. Conditions: 1 µM inhibitor, mean. The format is biochemical. The procedure: as §4
In a further assay the target is Aurora B (Homo sapiens, UniProt Q96GD4). Put plainly: Selectivity screen Aurora B. As to conditions: 1 µM inhibitor, mean. In kind it is biochemical.
The next assay addresses NEK2a (Homo sapiens, UniProt P51955). In words: Selectivity screen NEK2a. The format is biochemical. As to conditions: 1 µM inhibitor, mean. The procedure: as §4
The next assay has as its target MARK2 (Homo sapiens, UniProt Q7KZI7). Put plainly: Selectivity screen MARK2. The format is biochemical. Conditions: 1 µM inhibitor, mean. How it is done: as §4

pIC50: −log10 of the molar value. Where two headings read alike, the source gives them in different places.

PKCz, sequence (Q05513 whole entry): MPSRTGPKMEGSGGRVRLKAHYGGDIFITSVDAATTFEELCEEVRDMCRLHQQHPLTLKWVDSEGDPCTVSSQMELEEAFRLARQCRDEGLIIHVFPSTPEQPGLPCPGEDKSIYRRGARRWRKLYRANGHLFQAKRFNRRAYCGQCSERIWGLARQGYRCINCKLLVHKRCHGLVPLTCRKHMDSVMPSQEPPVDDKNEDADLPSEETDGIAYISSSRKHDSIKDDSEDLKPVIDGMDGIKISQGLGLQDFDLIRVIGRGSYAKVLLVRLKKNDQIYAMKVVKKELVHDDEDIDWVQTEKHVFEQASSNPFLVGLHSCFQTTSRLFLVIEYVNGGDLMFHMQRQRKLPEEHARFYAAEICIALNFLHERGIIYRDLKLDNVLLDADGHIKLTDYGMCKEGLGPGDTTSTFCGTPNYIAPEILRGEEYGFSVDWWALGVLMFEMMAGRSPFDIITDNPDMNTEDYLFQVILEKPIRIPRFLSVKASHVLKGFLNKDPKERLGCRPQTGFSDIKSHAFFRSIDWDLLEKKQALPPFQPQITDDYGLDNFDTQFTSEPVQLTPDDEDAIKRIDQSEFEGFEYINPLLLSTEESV
MARK2, sequence (Q7KZI7 whole entry): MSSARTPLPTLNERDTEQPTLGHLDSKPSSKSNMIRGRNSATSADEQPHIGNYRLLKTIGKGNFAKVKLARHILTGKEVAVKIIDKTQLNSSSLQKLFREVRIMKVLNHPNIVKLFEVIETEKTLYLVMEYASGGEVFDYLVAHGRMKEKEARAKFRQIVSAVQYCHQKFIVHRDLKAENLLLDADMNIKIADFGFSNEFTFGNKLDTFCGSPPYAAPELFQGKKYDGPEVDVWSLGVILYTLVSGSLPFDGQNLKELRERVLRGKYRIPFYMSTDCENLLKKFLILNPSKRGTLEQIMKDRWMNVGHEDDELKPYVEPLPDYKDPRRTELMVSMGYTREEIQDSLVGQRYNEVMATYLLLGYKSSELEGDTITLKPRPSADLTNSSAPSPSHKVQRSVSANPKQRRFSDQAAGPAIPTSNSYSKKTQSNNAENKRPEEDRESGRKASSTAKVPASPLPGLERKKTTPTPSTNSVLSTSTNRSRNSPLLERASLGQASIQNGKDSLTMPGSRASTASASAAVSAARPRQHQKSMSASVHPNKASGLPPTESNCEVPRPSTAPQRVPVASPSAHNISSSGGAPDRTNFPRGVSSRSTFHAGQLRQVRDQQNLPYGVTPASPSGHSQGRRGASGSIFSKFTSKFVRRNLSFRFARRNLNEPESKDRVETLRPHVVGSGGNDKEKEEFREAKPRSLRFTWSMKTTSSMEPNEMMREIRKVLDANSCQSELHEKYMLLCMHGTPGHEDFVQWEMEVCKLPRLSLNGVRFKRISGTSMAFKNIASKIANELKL
Aurora B, sequence (Q96GD4 whole entry): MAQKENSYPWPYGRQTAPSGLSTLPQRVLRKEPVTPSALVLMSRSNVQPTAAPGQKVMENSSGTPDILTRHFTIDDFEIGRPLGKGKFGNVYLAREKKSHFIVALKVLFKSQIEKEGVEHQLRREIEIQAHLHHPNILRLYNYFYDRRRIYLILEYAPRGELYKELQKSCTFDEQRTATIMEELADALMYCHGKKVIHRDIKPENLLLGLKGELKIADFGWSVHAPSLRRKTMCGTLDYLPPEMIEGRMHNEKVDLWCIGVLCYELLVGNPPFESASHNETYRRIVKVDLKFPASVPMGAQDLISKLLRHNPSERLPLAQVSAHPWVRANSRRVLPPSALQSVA
MARK1, sequence (Q9P0L2 whole entry): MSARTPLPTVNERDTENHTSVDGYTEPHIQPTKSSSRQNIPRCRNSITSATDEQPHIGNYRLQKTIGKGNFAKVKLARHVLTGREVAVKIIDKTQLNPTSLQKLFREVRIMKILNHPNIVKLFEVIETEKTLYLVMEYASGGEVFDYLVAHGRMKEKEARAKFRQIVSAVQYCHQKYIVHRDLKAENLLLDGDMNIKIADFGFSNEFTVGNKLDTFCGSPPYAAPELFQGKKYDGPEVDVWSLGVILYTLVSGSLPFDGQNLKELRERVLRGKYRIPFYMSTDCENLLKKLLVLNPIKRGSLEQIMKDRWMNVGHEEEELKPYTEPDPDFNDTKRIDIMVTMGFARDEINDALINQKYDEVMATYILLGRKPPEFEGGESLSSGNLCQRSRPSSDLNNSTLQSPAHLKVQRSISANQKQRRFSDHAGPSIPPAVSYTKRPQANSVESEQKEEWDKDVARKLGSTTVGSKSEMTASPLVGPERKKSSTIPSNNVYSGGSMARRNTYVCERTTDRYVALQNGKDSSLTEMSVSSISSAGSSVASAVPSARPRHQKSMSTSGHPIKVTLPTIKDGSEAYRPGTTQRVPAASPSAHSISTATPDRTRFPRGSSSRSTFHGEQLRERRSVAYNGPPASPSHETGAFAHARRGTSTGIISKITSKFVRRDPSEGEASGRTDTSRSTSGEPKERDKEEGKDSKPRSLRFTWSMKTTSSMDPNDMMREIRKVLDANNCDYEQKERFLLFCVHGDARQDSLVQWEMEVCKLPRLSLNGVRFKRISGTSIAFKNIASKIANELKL
EPH-A2, sequence (P29317 24-976): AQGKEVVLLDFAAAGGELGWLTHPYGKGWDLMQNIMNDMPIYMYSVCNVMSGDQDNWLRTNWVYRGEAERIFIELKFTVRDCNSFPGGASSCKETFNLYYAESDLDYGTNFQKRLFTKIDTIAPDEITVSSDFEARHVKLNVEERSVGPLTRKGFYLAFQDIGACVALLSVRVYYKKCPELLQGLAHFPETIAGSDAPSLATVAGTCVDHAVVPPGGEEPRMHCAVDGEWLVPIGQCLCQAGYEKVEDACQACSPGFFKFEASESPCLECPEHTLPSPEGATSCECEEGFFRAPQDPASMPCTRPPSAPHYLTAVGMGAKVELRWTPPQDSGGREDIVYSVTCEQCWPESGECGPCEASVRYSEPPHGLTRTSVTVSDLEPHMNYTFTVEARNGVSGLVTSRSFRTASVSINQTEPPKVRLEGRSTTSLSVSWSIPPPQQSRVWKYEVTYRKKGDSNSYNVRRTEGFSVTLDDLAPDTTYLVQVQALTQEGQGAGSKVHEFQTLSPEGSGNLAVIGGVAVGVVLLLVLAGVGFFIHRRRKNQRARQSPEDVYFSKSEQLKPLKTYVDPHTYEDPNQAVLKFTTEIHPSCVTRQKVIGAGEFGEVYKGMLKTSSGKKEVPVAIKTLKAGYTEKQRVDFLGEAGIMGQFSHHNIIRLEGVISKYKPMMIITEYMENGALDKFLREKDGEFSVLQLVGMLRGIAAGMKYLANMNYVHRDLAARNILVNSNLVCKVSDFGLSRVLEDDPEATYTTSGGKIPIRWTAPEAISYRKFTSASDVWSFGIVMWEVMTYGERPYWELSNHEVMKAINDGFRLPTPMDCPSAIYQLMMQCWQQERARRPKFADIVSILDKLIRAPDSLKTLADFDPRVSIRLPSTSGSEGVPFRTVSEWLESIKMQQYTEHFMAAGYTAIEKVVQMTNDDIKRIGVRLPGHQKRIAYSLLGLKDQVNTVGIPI
CK1γ2, sequence (P78368 whole entry): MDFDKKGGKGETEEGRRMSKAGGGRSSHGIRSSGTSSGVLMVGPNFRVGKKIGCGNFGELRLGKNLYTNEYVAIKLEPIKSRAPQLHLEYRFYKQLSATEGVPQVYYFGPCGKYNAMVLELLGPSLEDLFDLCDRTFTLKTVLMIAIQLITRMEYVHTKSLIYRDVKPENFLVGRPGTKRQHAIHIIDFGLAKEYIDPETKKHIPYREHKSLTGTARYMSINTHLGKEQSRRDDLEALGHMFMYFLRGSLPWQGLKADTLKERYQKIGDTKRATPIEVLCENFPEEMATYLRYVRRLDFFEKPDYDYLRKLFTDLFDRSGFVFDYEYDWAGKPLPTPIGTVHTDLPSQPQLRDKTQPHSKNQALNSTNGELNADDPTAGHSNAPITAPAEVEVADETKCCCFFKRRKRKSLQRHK
JNK1, sequence (P45983 whole entry): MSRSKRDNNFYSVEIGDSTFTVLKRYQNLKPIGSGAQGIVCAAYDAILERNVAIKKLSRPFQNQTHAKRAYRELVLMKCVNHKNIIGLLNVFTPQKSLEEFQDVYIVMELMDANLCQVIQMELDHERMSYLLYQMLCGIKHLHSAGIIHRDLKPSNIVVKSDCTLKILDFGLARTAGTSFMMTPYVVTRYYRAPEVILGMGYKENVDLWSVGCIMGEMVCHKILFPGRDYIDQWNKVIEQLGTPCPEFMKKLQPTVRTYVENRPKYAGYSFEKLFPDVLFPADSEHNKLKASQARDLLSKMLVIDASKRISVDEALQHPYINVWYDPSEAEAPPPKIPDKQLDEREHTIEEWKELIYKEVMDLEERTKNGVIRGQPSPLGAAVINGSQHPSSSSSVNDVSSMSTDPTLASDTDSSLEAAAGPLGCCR
MST2, sequence (Q13188 whole entry): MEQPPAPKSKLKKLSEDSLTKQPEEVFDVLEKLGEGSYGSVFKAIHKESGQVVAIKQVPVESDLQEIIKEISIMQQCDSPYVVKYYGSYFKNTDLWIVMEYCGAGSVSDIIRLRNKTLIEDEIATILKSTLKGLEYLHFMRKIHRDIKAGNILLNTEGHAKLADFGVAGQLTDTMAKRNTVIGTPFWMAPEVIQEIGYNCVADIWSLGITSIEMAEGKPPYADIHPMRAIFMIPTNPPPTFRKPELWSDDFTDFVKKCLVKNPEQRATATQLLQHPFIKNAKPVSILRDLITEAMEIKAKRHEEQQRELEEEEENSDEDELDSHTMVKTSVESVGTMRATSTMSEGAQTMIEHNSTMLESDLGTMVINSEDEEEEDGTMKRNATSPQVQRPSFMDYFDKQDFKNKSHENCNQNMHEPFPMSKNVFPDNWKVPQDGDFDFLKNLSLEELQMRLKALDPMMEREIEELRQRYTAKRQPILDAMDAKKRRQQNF

Turning to `C=CC(=O)N1C[C@H](Nc2ncnc3[nH]ccc23)CC[C@@H]1C` [PF-06651600, 1-((2S,5R)-5-((7H-Pyrrolo[2,3-d]pyrimidin-4-yl)amino)-2-methylpiperidin-1-yl)prop-2-en-1-one, reference compound], the negative logarithm of the IC50 (pIC50) was less than 5.00 with TYK2 (ATP 12 μM), less than 5.00 in assay [1] and 6.25 in assay [2].

For the molecule `C=CC(=O)Nc1cccc(CNc2nc(Nc3ccc(N4CCN(C)CC4)cc3OC)ncc2Cl)c1` [TL6-144], the “activity remaining in the presence of the inhibitor: PKCγ” value on PKCγ is listed as 111. Further, the “activity remaining in the presence of the inhibitor: Src” value at Src is 74. In addition, the “activity remaining in the presence of the inhibitor: MARK1” value at MARK1 is 87. For the same molecule, the “activity remaining in the presence of the inhibitor: PKA” value at PKA turned out to be 104. Besides, the “activity remaining in the presence of the inhibitor: LKB1” value on LKB1 is 91. At MST2, the “activity remaining in the presence of the inhibitor: MST2” value is 83. Also, the “activity remaining in the presence of the inhibitor: PAK4” value on PAK4 was found to be 99. Besides, the pIC50 is […] in the assay on TYK2 (ATP 25 μM), […] in assay [1] and 6.26 in assay [2]. Besides, the “activity remaining in the presence of the inhibitor: PKCz” value on PKCz was 88. In addition, the “activity remaining in the presence of the inhibitor: DAPK1” value on DAPK1 came to 94. Further, at ERK1, the “activity remaining in the presence of the inhibitor: ERK1” value stood at 94. On PKBb, the remaining activity at 1 µM was found to be 107%. The “activity remaining in the presence of the inhibitor: SGK1” value at SGK1 is […]. In addition, on JNK1, the “activity remaining in the presence of the inhibitor: JNK1” value was 83. Moreover, the “activity remaining in the presence of the inhibitor: PHK” value with PHK was found to be 40. For the same molecule, on CHK2, the “activity remaining in the presence of the inhibitor: CHK2” value was 38. On ULK2, the “activity remaining in the presence of the inhibitor: ULK2” value turned out to be 63. In [1] (10 μM inhibitor), the “inhibition of IL-4 induced STAT6 phosphorylation, JAK3 Cys905Ser knockin BMDMs” value is on record as “did not inhibit”. The “activity remaining in the presence of the inhibitor: CK1γ2” value on CK1γ2 is on record as 82. Further, the “activity remaining in the presence of the inhibitor: EPH-A2” value on EPH-A2 is on record as 72. On Aurora B, the “activity remaining in the presence of the inhibitor: Aurora B” value is 81. In addition, on NEK2a, the “activity remaining in the presence of the inhibitor: NEK2a” value came to 96. Further, at MARK2, the “activity remaining in the presence of the inhibitor: MARK2” value came out at 84.

`C=CC(=O)Nc1cccc(CNc2nc(Nc3ccc(N4CCOCC4)cc3)ncc2Cl)c1` [TL8-52]: the “activity remaining in the presence of the inhibitor: PKCγ” value at PKCγ came to 109. For the same molecule, the “activity remaining in the presence of the inhibitor: Src” value on Src is given as 53. Further, the “activity remaining in the presence of the inhibitor: MARK1” value on MARK1 amounted to 44. Further, the “activity remaining in the presence of the inhibitor: PKA” value on PKA is reported as 74. Moreover, the “activity remaining in the presence of the inhibitor: LKB1” value at LKB1 turned out to be 132. Besides, the “activity remaining in the presence of the inhibitor: MST2” value at MST2 is on record as 48. The “activity remaining in the presence of the inhibitor: PAK4” value on PAK4 is 85. The figures for the negative-log IC50 (pIC50) (in the assay on TYK2 (ATP 25 μM); in assay [1]; in [2]) were 6.49, 6.27 and 7.00, respectively. Besides, the “activity remaining in the presence of the inhibitor: PKCz” value on PKCz was found to be 98. On DAPK1, the “activity remaining in the presence of the inhibitor: DAPK1” value is on record as 100. The “activity remaining in the presence of the inhibitor: ERK1” value on ERK1 came out at 94. The remaining activity at 1 µM on PKBb was determined as 107%. In addition, at SGK1, the “activity remaining in the presence of the inhibitor: SGK1” value is recorded as 89. For the same molecule, the “activity remaining in the presence of the inhibitor: JNK1” value on JNK1 is on record as 104. In the assay on PHK, the “activity remaining in the presence of the inhibitor: PHK” value is on record as 78. In addition, at CHK2, the “activity remaining in the presence of the inhibitor: CHK2” value amounted to 75. Also, the “activity remaining in the presence of the inhibitor: ULK2” value at ULK2 was found to be 92. The “activity remaining in the presence of the inhibitor: CK1γ2” value on CK1γ2 amounted to 96. In addition, the “activity remaining in the presence of the inhibitor: EPH-A2” value at EPH-A2 was determined as 87. Moreover, the “activity remaining in the presence of the inhibitor: Aurora B” value on Aurora B stood at 13. The “activity remaining in the presence of the inhibitor: NEK2a” value at NEK2a came out at 135. Besides, the “activity remaining in the presence of the inhibitor: MARK2” value at MARK2 is listed as 37.
